Laboratory results taken from ChEMBL document CHEMBL3745676, “Alkylamino derivatives of N-benzylpyrazine-2-carboxamide: synthesis and antimycobacterial evaluation” (Medchemcomm, 2015).
In brackets after ≈: the same amount, converted by molar mass. Activity calls are given as the source filed them. No cut-off for these calls is given here.

Tests used:
[1] = Lipophilicity, logK of the compound by RP-HPLC analysis; assay type: physicochemical
[2] = tested on: Mycobacterium avium; experiment: Antimycobacterial activity against Mycobacterium avium CNCTC My 152/73 after 5 days by microplate alamar blue assay; assay type: functional; details: CNCTC My 152/73, 120 h
[3] = tested on: Mycobacterium kansasii; experiment: Antimycobacterial activity against Mycobacterium kansasii CNCTC My 235/80 incubated for 5 to 7 days by microplate alamar blue assay; assay type: functional
[4] = tested on: Mycobacterium avium; experiment: Antimycobacterial activity against Mycobacterium avium CNCTC My 80/72 after 5 days by microplate alamar blue assay; assay type: functional; details: CNCTC My 80/72, 120 h
[5] = tested on: Mycobacterium tuberculosis; experiment: Antimycobacterial activity against Mycobacterium tuberculosis H37Rv; assay type: functional
[6] = tested on: Klebsiella pneumoniae; experiment: Antibacterial activity against Klebsiella pneumoniae D 11750/08 after 24 to 48 hrs by broth microdilution method; assay type: functional
[7] = tested on: Staphylococcus aureus; experiment: Antibacterial activity against methicillin-resistant Staphylococcus aureus H 5996/08 after 24 to 48 hrs by broth microdilution method; assay type: functional, organism-based
[8] = tested on: Influenza A virus; experiment: Antiviral activity against Influenza A virus (A/Puerto Rico/8/(H1N1)) assessed as inhibition of virus-induced cytopathic effect after 3 to 6 days by formazan-based MTS assay; assay type: functional, organism-based
[9] = tested on: Pichia kudriavzevii; experiment: Antifungal activity against Candida krusei E28 after 24 to 48 hrs by broth microdilution method; assay type: functional
[10] = tested on: Influenza A virus; experiment: Antiviral activity against Influenza A virus (A/Puerto Rico/8/(H1N1)) assessed as inhibition of virus-induced cytopathic effect after 3 to 6 days by microscopic analysis; assay type: functional, organism-based
[11] = tested on: Nakaseomyces glabratus; experiment: Antifungal activity against Candida glabrata 20/I after 24 to 48 hrs by broth microdilution method; assay type: functional
[12] = Cytotoxicity against CRFK cells assessed as cell viability after 4 to 6 days by formazan-based MTS assay; design: species or system Felis catus; details: cat
[13] = tested on: Staphylococcus aureus; experiment: Antibacterial activity against Staphylococcus aureus after 24 to 48 hrs by broth microdilution method; assay type: functional
[14] = tested on: Trichosporon asahii; experiment: Antifungal activity against Trichosporon asahii 1188 after 24 to 48 hrs by broth microdilution method; assay type: functional
[15] = Cytotoxicity against African green monkey Vero cells assessed as cell viability after 4 to 6 days by microscopic analysis; assay type: cell-based; details: chlorocebus sabaeus
[16] = Cytotoxicity against human HeLa cells assessed as cell viability after 4 to 6 days by microscopic analysis; assay type: cell-based
[17] = tested on: Escherichia coli; experiment: Antibacterial activity against Escherichia coli CCM 4517 after 24 to 48 hrs by broth microdilution method; assay type: functional
[18] = tested on: Mycobacterium tuberculosis; experiment: Potency index, ratio of pyrazinamide MIC to compound MIC for Mycobacterium tuberculosis H37Rv CNCTC My 331/88; assay type: functional
[19] = tested on: Candida tropicalis; experiment: Antifungal activity against Candida tropicalis 156 after 24 to 48 hrs by broth microdilution method; assay type: functional
[20] = tested on: Trichophyton mentagrophytes; experiment: Antifungal activity against Trichophyton mentagrophytes 445 after 72 to 120 hrs by broth microdilution method; assay type: functional
[21] = Cytotoxicity against MDCK cells assessed as cell viability after 4 to 6 days by microscopic analysis; assay type: cell-based, Canis lupus familiaris; details: dog
[22] = tested on: Klebsiella pneumoniae; experiment: Antibacterial activity against ESBL positive Klebsiella pneumoniae J 14368/08 after 24 to 48 hrs by broth microdilution method; assay type: functional
[23] = Cytotoxicity against HEL cells assessed as cell viability after 4 to 6 days by microscopic analysis; assay type: cell-based; details: human
[24] = tested on: Candida albicans; experiment: Antifungal activity against Candida albicans ATCC 44859 after 24 to 48 hrs by broth microdilution method; assay type: functional
[25] = tested on: Pseudomonas aeruginosa; experiment: Antibacterial activity against Pseudomonas aeruginosa CCM 1961 after 24 to 48 hrs by broth microdilution method; assay type: functional
[26] = tested on: Mycobacterium tuberculosis; experiment: Antimycobacterial activity against Mycobacterium tuberculosis H37Rv CNCTC My 331/88 incubated for 10 to 14 days by microplate alamar blue assay; assay type: functional
[27] = tested on: Lichtheimia corymbifera; experiment: Antifungal activity against Lichtheimia corymbifera 272 after 24 to 48 hrs by broth microdilution method; assay type: functional
[28] = tested on: Aspergillus fumigatus; experiment: Antifungal activity against Aspergillus fumigatus 231 after 24 to 48 hrs by broth microdilution method; assay type: functional
[29] = Cytotoxicity against MDCK cells assessed as cell viability after 4 to 6 days by formazan-based MTS assay; design: species or system Canis lupus familiaris; details: dog
[30] = Inhibition of Mycobacterium tuberculosis InhA
[31] = tested on: Mycobacterium tuberculosis; experiment: Inhibition of mycolic acid synthesis in [1,2-14C]-acetate-labelled Mycobacterium tuberculosis H37Ra at 5 ug/ml preincubated for 20 hrs followed by radiolabelling measured after 24 hrs by autoradiography; assay type: functional, organism-based
[32] = tested on: Mycobacterium tuberculosis; experiment: Effect on short chain fatty acids production in [1,2-14C]-acetate-labelled Mycobacterium tuberculosis H37Ra at 5 ug/ml preincubated for 20 hrs followed by radiolabelling measured after 24 hrs by autoradiography; assay type: functional, organism-based
[33] = tested on: Respiratory syncytial virus; experiment: Antiviral activity against Respiratory syncytial virus infecetd in human HeLa cells assessed as inhibition of virus replication after 3 to 6 days; assay type: functional, organism-based

| Compound | log K [1] | MIC [2] | MIC [3] | MIC [4] | MIC95 [6] | EC50 [8] | MIC [9] | EC50 [10] | MIC [11] | CC50 [12] | MIC [14] | MCC [15] | MCC [16] | MIC95 [17] | Ratio [18] | MIC [19] | MIC [20] | MCC [21] | MIC95 [22] | MIC [26] | further results |
| --- | --- | --- | --- | --- | --- | --- | --- | --- | --- | --- | --- | --- | --- | --- | --- | --- | --- | --- | --- | --- | --- |
| O=C(NCc1ccccc1)c1cnc(Cl)cn1 | 0.186 | > 100 µg/mL | 100 µg/mL | > 100 µg/mL |  |  |  |  |  |  |  |  |  |  |  |  |  |  |  |  | MIC [5]: 100 µM (≈ 24.8 µg/mL) |
| CCCCCCCCNc1cncc(C(=O)NCc2ccccc2)n1 | 1.431 | > 100 µg/mL | 18 µM | > 100 µg/mL | > 500 µM | > 100 µM | > 500 µM | > 100 µM | > 500 µM | > 100 µM | > 500 µM | > 100 µM | > 100 µM | > 500 µM | <=20 | > 500 µM | > 500 µM | 4 µM | > 500 µM | 9.2 µM (≈ 3.13 µg/mL) | Activity [7]: inactive; MIC95 [13]: 3.9 µM (≈ 1.33 µg/mL); MCC [23]: > 100 µM; MIC [24]: > 500 µM; MIC95 [25]: > 500 µM; MIC [27]: > 500 µM; MIC [28]: > 500 µM; CC50 [29]: 1.3 µM |
| CCCCCCCCc1ccc(Oc2ccccc2)c(O)c1 |  |  |  |  |  |  |  |  |  |  |  |  |  |  |  |  |  |  |  |  | IC50 [30]: 0.005 µM |
| CCCCCCCNc1cncc(C(=O)NCc2ccccc2)n1 | 1.207 | > 100 µg/mL | 38 µM | > 100 µg/mL | > 500 µM | > 100 µM | > 500 µM | > 100 µM | > 500 µM | > 100 µM | > 500 µM | > 100 µM | > 100 µM | > 500 µM | <=20 | > 500 µM | > 500 µM | 4 µM | > 500 µM | 10 µM (≈ 3.26 µg/mL) | Activity [7]: inactive; MCC [23]: > 100 µM; MIC [24]: > 500 µM; MIC95 [25]: > 500 µM; MIC [27]: > 500 µM; MIC [28]: > 500 µM; CC50 [29]: 2.4 µM; inhibition [31]: inactive |
| O=C(NCc1ccccc1)c1cncc(Cl)n1 | 0.2 | > 100 µg/mL | 404 µM | > 100 µg/mL |  |  |  |  |  |  |  |  |  |  |  |  |  |  |  |  | MIC [5]: 50 µM (≈ 12.4 µg/mL) |
| NNC(=O)c1ccncc1 [ISONIAZID] | -0.743 |  | 11 µM |  |  |  |  |  |  |  |  |  |  |  |  |  |  |  |  | 2.8 µM (≈ 0.384 µg/mL) | Activity [32]: inactive; inhibition [31]: Active |
| CCCCCCCCNc1cnc(C(=O)NCc2ccccc2)cn1 | 1.312 | > 100 µg/mL | > 100 µg/mL | > 100 µg/mL | > 500 µM | > 100 µM | > 500 µM | 1.1 µM | > 500 µM | 28 µM | > 500 µM | 20 µM | 100 µM | > 500 µM | <=20 | > 500 µM | > 500 µM | ≥ 20 µM | > 500 µM | 4.6 µM (≈ 1.57 µg/mL) | MCC [23]: 100 µM; MIC [24]: > 500 µM; MIC95 [25]: > 500 µM; EC50 [33]: 8.9 µM; MIC [27]: > 500 µM; MIC [28]: > 500 µM; CC50 [29]: 62 µM; inhibition [31]: inactive |
| CCCCCCCNc1cnc(C(=O)NCc2ccccc2)cn1 | 1.089 | > 100 µg/mL | > 100 µg/mL | > 100 µg/mL | > 500 µM | 47 µM | > 500 µM | 21 µM | > 500 µM | > 100 µM | > 500 µM | ≥ 100 µM | > 100 µM | > 500 µM | <=20 | > 500 µM | > 500 µM | > 100 µM | > 500 µM | 10 µM (≈ 3.26 µg/mL) | MCC [23]: > 100 µM; MIC [24]: > 500 µM; MIC95 [25]: > 500 µM; MIC [27]: > 500 µM; MIC [28]: > 500 µM; CC50 [29]: > 100 µM |
